Assay results reported in US5447911A, “Ghilanten antimetastatic principle from the south american leech, Haementeria ghilianii” (Merrell Dow Pharmaceuticals Inc., priority 1994, dated 1995).

System: B16 melanoma F10 cells
Assay: Metastatic spread of B16-F10 melanoma cells to the lungs of C57/BL mice
Assay type: in vivo
Method: To confirm the anti-metastatic activity of the proteinaceous substances of this invention, 1×10^5 viable B16 melanoma F10 line cells were injected i.v. through the tail vein of C57/BL mice. The antimetastatic factor was then administered i.v. at -2, +2, +4 and +6 hours relative to the tumor innoculum at t=0 hours. At the end of 15 days, the animals were sacrificed and the number of metastatic foci in the lungs were quantitated. The results observed are summarized in Table 1 below, with n indicating the number of animals used in the test.
B16 melanoma F10 cells (1 × 10^5 cells/animal) were injected i.v.
into the tail vein of C57/Bl mice on day 0. Vehicle: 10 mM Hepes, 0.15M
NaCl, pH 7.4 containing 10 mg/ml BSA; recombinantHirudin (25 antithrombin
units) and FXa inhibitor (1-2 μg) were injected into the mice i.v. at
-2, +2, +4, +6 hrs. after tumor cell innoculation. The animals were
sacrificed at 14 days post tumor cell innoculation. The lungs were
dissected, fixed, and the number of pulmonary metas tases were determined
under a dissecting microscope. […]

[1] = Table 1, recombinant hirudin 25 antithrombin units or FXa inhibitor 1-2 μg i.v. at -2, +2, +4, +6 hrs, versus vehicle control

Hirudin
No. of Metastatic Foci (Mean + S.E.; n = 6) (Table 1, lungs, recombinant hirudin 25 antithrombin units or FXa inhibitor 1-2 μg i.v. at -2, +2, +4, +6 hrs, 14 days post innoculation): 198 ± 10 | % Inhibition (metastatic foci) [1]: 0% | % Potentiation (metastatic foci) [1]: 21% | Effect on metastasis (in words) (administered -2, +2, +4 and +6 hours relative to tumor cell innoculation): caused a moderate increase in metastatic foci
